Measurements taken from US7993822B2, “Aging biomarker” (Vlaams Interuniversitair Instituut Voor Biotechnologie VZW, priority 2004, dated 2011).

Key:
[1] = tested on: rat; assay: Biochemical assay in serum (ALAT, ASAT, TBil) of CCl4 exposed rats, with or without Interferon-γ co-treatment; type: in vivo, rat (Wistar)
Text: (§1) The repeated administration of CCl4 is widely employed as an animal model of human hepatic fibrosis/cirrhosis. In order to evaluate whether the sugar marker has high predictive values for the liver damage, we tested N-glycan profiling on the CCl4 treated, co-treated with INF-γ and control rat groups (Wistar). Take into account that N-glycosylation in animals is species-specific, we therefore profiled the N-linked glycan to get a fingerprinting in rat serum. […] N-glycan peaks of P1, P3, P5, P6, P7, P9 are consistent with that of human. However, four peaks (rP2, rP4, rP8 and rP10) are rat-specific N-linked sugars.
Moreover, the rat serum alanine aminotransferase activity (ALAT), aspartate aminotransferase activity (ASAT) and total bilirubin concentration (TBil) were analysed using routine photometric tests on a Hitachi 747 analyser (Boehringer Mannheim GmbH, Diagnostica) for subsequent assessment of hepatic injury and liver function, respectively.

[2] = tested on: rat; assay: Serum N-glycan profile of rats treated with CCl4 and co-treated with Interferon-γ; type: in vivo, rat (Wistar)
Procedure: The glycoproteins were denatured by addition of at least 2 volumes RCM buffer (8 M urea, 360 mM Tris, pH 8.6, 3.2 mM EDTA) to each sample in a final volume of at least 50 μl, and the samples were then placed at 50° C. for 1 h. The N-linked glycans present on the serum proteins in 5 μl of serum were released after binding the protein to an Immobilon P-lined 96-well plate. They were then derivatized with APTS (Molecular Probes, Eugene, Calif., USA) and analyzed on an ABI 377A DNA sequencer (Applied Biosystems).
as §1

[3] = rat, repeated administration of CCl4, Week 12, vs control group
[4] = CCl4 treated rat co-treated with INF-γ, Week 12, vs CCl4 group

| Molecule | serum alanine aminotransferase activity (ALAT) [1, 3] | serum aspartate aminotransferase activity (ASAT) [1, 3] | total bilirubin concentration (TBil) [1, 3] | trends of six serum N-glycan peaks ([2]; CCl4 treated rat group compared to control group) | N-glycan profile between CCl4 group and control group ([2]; rat, Week 9, peaks P4 and P5 even in Week 6) | liver damage caused by CCl4 treatment ([1]; CCl4 treated rat co-treated with INF-γ, Week 12) | serum ALAT level [1, 4] | serum ASAT level [1, 4] | serum bilirubin level [1, 4] | changes of serum N-glycan peaks ([2]; INF-γ co-treated group compared to CCl4 group) |
| --- | --- | --- | --- | --- | --- | --- | --- | --- | --- | --- |
| ClC(Cl)(Cl)Cl [CCl4] | significantly raised | significantly raised | significantly raised | either increased or decreased | different trends |  |  |  |  |  |
| Interferon-γ (protein, UniProt P01581 23-156, looked up, Interferon-γ co-treatment of CCl4 treated rats) Interferon gamma: QGTLIESLESLKNYFNSSSMDAMEGKSLLLDIWRNWQKDGNTKILESQIISFYLRLFEVLKDNQAISNNISVIESHLITNFFSNSKAKKDAFMSIAKFEVNNPQIQHKAVNELIRVIHQLSPESSLRKRKRSRC |  |  |  |  |  | partially protected | decreasing levels | decreasing levels | decreasing levels | less slop changes than CCl4-group |
